# Measurements from patent US11897904B2, “Herbicidally active bicyclic benzamides” (Bayer Aktiengesellschaft, priority 2017, dated 2024).
# Experiments:
# [1] = tested on: ABUTH; assay: Post-emergence herbicidal action; format: in vivo, Abutilon theophrasti; conditions: post-emergence, rated visually after about 3 weeks vs untreated controls
# Experimental: (§1) 2. Post-Emergence Herbicidal Action and Crop Plant Compatibility
# (§2) Seeds of monocotyledonous and dicotyledonous weeds and crop plants are placed in sandy loam in plastic or organic planting pots, covered with soil and cultivated in a greenhouse under controlled growth conditions. 2 to 3 weeks after sowing, the test plants are treated at the one-leaf stage. The compounds of the invention, formulated in the form of wettable powders (WP) or as emulsion concentrates (EC), are then sprayed onto the green parts of the plants as aqueous suspension or emulsion with addition of 0.5% additive at a water application rate of […] (converted). After the test plants had been kept in the greenhouse under optimum growth conditions for about 3 weeks, the activity of the preparations is rated visually in comparison to untreated controls. The tables below show the herbicidal activity of numerous compounds according to the invention against important harmful plants. For example, 100% activity=the plants have died, 0% activity=like control plants.
# [2] = tested on: VIOTR; assay: Post-emergence herbicidal action; format: in vivo, Viola tricolor; conditions: rated visually after about 3 weeks vs untreated controls
# Experimental: as §1, §2
# [3] = tested on: MATIN; assay: Pre-emergence herbicidal action; format: in vivo, Matricaria inodora; conditions: pre-emergence, scored visually after about 3 weeks vs untreated controls
# From the text: (§3) 1. Pre-Emergence Herbicidal Action and Crop Plant Compatibility
# (§4) Seeds of monocotyledonous and dicotyledonous weed plants and crop plants are placed in plastic or organic planting pots and covered with soil. The compounds of the invention, formulated in the form of wettable powders (WP) or as emulsion concentrates (EC), are then applied onto the surface of the covering soil as aqueous suspension or emulsion with addition of 0.5% additive at a water application rate of 600 l/ha (converted). After the treatment, the pots are placed in a greenhouse and kept under good growth conditions for the trial plants. After about 3 weeks, the effect of the preparations is scored visually in comparison with untreated controls as percentages. The tables below show the herbicidal activity of numerous compounds according to the invention against important harmful plants. For example, 100% activity=the plants have died, 0% activity=like control plants.
# [4] = tested on: AMARE; assay: Post-emergence herbicidal action; format: in vivo, Amaranthus retroflexus; conditions: rated visually after about 3 weeks vs untreated controls
# Experimental: as §1, §2
# [5] = tested on: PHBPU; assay: Post-emergence herbicidal action; format: in vivo, Ipomoea purpurea; conditions: rated visually after about 3 weeks vs untreated controls
# Experimental: as §1, §2
# [6] = tested on: VERPE; assay: Pre-emergence herbicidal action; format: in vivo, Veronica persica; conditions: scored visually after about 3 weeks vs untreated controls
# From the text: as §3, §4
# [7] = tested on: STEME; assay: Post-emergence herbicidal action; format: in vivo, Stellaria media; conditions: rated visually after about 3 weeks vs untreated controls
# Experimental: as §1, §2
# [8] = tested on: VERPE; assay: Post-emergence herbicidal action; format: in vivo, Veronica persica; conditions: rated visually after about 3 weeks vs untreated controls
# Experimental: as §1, §2
# [9] = tested on: STEME; assay: Pre-emergence herbicidal action; format: in vivo, Stellaria media; conditions: scored visually after about 3 weeks vs untreated controls
# From the text: as §3, §4
# [10] = tested on: ABUTH; assay: Pre-emergence herbicidal action; format: in vivo, Abutilon theophrasti; conditions: pre-emergence, scored visually after about 3 weeks vs untreated controls
# From the text: as §3, §4
# [11] = tested on: AMARE; assay: Pre-emergence herbicidal action; format: in vivo, Amaranthus retroflexus; conditions: scored visually after about 3 weeks vs untreated controls
# From the text: as §3, §4
# [12] = tested on: VIOTR; assay: Pre-emergence herbicidal action; format: in vivo, Viola tricolor; conditions: scored visually after about 3 weeks vs untreated controls
# From the text: as §3, §4
# [13] = tested on: ECHCG; assay: Post-emergence herbicidal action; format: in vivo, Echinochloa crus-galli; conditions: rated visually after about 3 weeks vs untreated controls
# Experimental: as §1, §2
# [14] = tested on: SETVI; assay: Post-emergence herbicidal action; format: in vivo, Setaria viridis; conditions: rated visually after about 3 weeks vs untreated controls
# Experimental: as §1, §2
# [15] = tested on: MATIN; assay: Post-emergence herbicidal action; format: in vivo, Matricaria inodora; conditions: 80 g/ha, rated visually after about 3 weeks vs untreated controls
# Experimental: as §1, §2
# [16] = tested on: SETVI; assay: Pre-emergence herbicidal action; format: in vivo, Setaria viridis; conditions: pre-emergence, 320 g/ha, scored visually after about 3 weeks vs untreated controls
# From the text: as §3, §4
compound,measurement,setting,value
Cn1ncnc1NC(=O)c1ccc(C(F)(F)F)c2c1OCS2 [Example 1-35],herbicidal activity ABUTH,[1]; 20 g/ha,80%
same,herbicidal activity VIOTR,[2]; 20 g/ha,80%
Cn1ncnc1NC(=O)c1ccc(C(F)(F)F)c2c1OC[S+]2[O-] (stereo not drawn) [Example 1-50],herbicidal activity MATIN,[3]; 80 g/ha,90%
same,herbicidal activity ABUTH,[1]; 20 g/ha,80%
same,herbicidal activity AMARE,[4]; 20 g/ha,80%
same,herbicidal activity VIOTR,[2]; 20 g/ha,80%
Cn1ncnc1NC(=O)c1ccc(C(F)(F)F)c2c1OCS2(=O)=O [Example 1-65],herbicidal activity AMARE,[4]; 20 g/ha,80%
same,herbicidal activity PHBPU,[5]; 20 g/ha,80%
CSc1ccc(C(=O)Nc2nnnn2C)c2c1OC(F)(F)O2 [Example 2-13],herbicidal activity VERPE,[6]; 320 g/ha,90%
same,herbicidal activity ABUTH,[1]; 80 g/ha,80%
same,herbicidal activity AMARE,[4]; 80 g/ha,80%
same,herbicidal activity STEME,[7]; 80 g/ha,80%
same,herbicidal activity VERPE,[8]; 80 g/ha,90%
Cn1nnnc1NC(=O)c1ccc(S(C)(=O)=O)c2c1OC(F)(F)O2 [Example 2-15],herbicidal activity VERPE,[6]; 320 g/ha,90%
same,herbicidal activity AMARE,[4]; 80 g/ha,80%
"Cn1nnnc1NC(=O)c1ccc(C(F)(F)F)c2c1SCS2 [Example 2-21, 7-(trifluoromethyl)-1,3-benzodithiolane-N-(1-methyltetrazol-5-yl)-4-carboxamide]",herbicidal activity STEME,[9]; 80 g/ha,90%
same,herbicidal activity STEME,[7]; 20 g/ha,80%
same,herbicidal activity VIOTR,[2]; 20 g/ha,80%
Cn1nnnc1NC(=O)c1ccc(C(F)F)c2c1SCS2 [Example 2-22],herbicidal activity PHBPU,[5]; 20 g/ha,80%
same,herbicidal activity VIOTR,[2]; 20 g/ha,100%
Cn1nnnc1NC(=O)c1ccc(C(F)(F)F)c2c1S(=O)(=O)CS2(=O)=O [Example 2-43],herbicidal activity ABUTH,[10]; 80 g/ha,100%
same,herbicidal activity AMARE,[11]; 80 g/ha,100%
same,herbicidal activity MATIN,[3]; 80 g/ha,80%
same,herbicidal activity STEME,[9]; 80 g/ha,90%
same,herbicidal activity VIOTR,[12]; 80 g/ha,100%
same,herbicidal activity AMARE,[4]; 20 g/ha,80%
same,herbicidal activity VIOTR,[2]; 20 g/ha,90%
Cc1ccc(C(=O)Nc2nnnn2C)c2c1SCO2 [Example 2-50],herbicidal activity PHBPU,[5]; 80 g/ha,80%
Cn1nnnc1NC(=O)c1ccc(C(F)F)c2c1OCS2 [Example 2-54],herbicidal activity AMARE,[11]; 320 g/ha,80%
same,herbicidal activity ABUTH,[1]; 80 g/ha,80%
same,herbicidal activity AMARE,[4]; 80 g/ha,90%
same,herbicidal activity ECHCG,[13]; 80 g/ha,100%
same,herbicidal activity PHBPU,[5]; 80 g/ha,80%
same,herbicidal activity SETVI,[14]; 80 g/ha,90%
same,herbicidal activity VERPE,[8]; 80 g/ha,90%
same,herbicidal activity VIOTR,[2]; 80 g/ha,100%
Cn1nnnc1NC(=O)c1ccc(S(C)(=O)=O)c2c1OCS2 [Example 2-58],herbicidal activity ABUTH,[1]; 20 g/ha,80%
same,herbicidal activity AMARE,[4]; 20 g/ha,80%
Cc1ccc(C(=O)Nc2nnnn2C)c2c1S(=O)(=O)CO2 [Example 2-80],herbicidal activity AMARE,[11]; 320 g/ha,90%
same,herbicidal activity MATIN,[3]; 320 g/ha,80%
same,herbicidal activity AMARE,[4]; 80 g/ha,90%
same,herbicidal activity MATIN,[15],80%
same,herbicidal activity STEME,[7]; 80 g/ha,90%
same,herbicidal activity VIOTR,[2]; 80 g/ha,90%
Cn1nnnc1NC(=O)c1ccc(C(F)F)c2c1OCS2(=O)=O [Example 2-84],herbicidal activity ABUTH,[10]; 320 g/ha,90%
same,herbicidal activity AMARE,[11]; 320 g/ha,100%
same,herbicidal activity MATIN,[3]; 320 g/ha,100%
same,herbicidal activity SETVI,[16],90%
same,herbicidal activity STEME,[9]; 320 g/ha,90%
same,herbicidal activity VERPE,[6]; 320 g/ha,100%
same,herbicidal activity VIOTR,[12]; 320 g/ha,100%
same,herbicidal activity ABUTH,[1]; 80 g/ha,90%
same,herbicidal activity AMARE,[4]; 80 g/ha,100%
same,herbicidal activity ECHCG,[13]; 80 g/ha,90%
same,herbicidal activity MATIN,[15],100%
same,herbicidal activity PHBPU,[5]; 80 g/ha,90%
same,herbicidal activity SETVI,[14]; 80 g/ha,100%
same,herbicidal activity STEME,[7]; 80 g/ha,100%
same,herbicidal activity VERPE,[8]; 80 g/ha,100%
same,herbicidal activity VIOTR,[2]; 80 g/ha,100%
"CC1Oc2c(C(=O)Nc3nnnn3C)ccc(C(F)(F)F)c2S1 (stereo not drawn) [Example 2-94, 2-methyl-4-(trifluoromethyl)-1,3-benzoxathiolane-N-(1-methyltetrazol-5-yl)-7-carboxamide]",herbicidal activity ABUTH,[10]; 320 g/ha,90%
same,herbicidal activity AMARE,[11]; 320 g/ha,100%
same,herbicidal activity SETVI,[16],100%
same,herbicidal activity STEME,[9]; 320 g/ha,100%
same,herbicidal activity VIOTR,[12]; 320 g/ha,100%
same,herbicidal activity ABUTH,[1]; 80 g/ha,90%
same,herbicidal activity AMARE,[4]; 80 g/ha,90%
same,herbicidal activity ECHCG,[13]; 80 g/ha,80%
same,herbicidal activity SETVI,[14]; 80 g/ha,80%
same,herbicidal activity STEME,[7]; 80 g/ha,100%
same,herbicidal activity VIOTR,[2]; 80 g/ha,80%
"COC1Oc2c(C(=O)Nc3nnnn3C)ccc(C(F)(F)F)c2S1 (stereo not drawn) [Example 2-112, 2-methoxy-4-(trifluoromethyl)-1,3-benzoxathiolane-N-(1-methyltetrazol-5-yl)-7-carboxamide]",herbicidal activity ABUTH,[10]; 80 g/ha,100%
same,herbicidal activity AMARE,[11]; 80 g/ha,90%
same,herbicidal activity VERPE,[6]; 80 g/ha,80%
same,herbicidal activity VIOTR,[12]; 80 g/ha,100%
same,herbicidal activity ABUTH,[1]; 20 g/ha,90%
same,herbicidal activity AMARE,[4]; 20 g/ha,80%
same,herbicidal activity ECHCG,[13]; 20 g/ha,80%
same,herbicidal activity SETVI,[14]; 20 g/ha,80%
same,herbicidal activity VERPE,[8]; 20 g/ha,80%
CCOC1Oc2c(C(=O)Nc3nnnn3C)ccc(C(F)(F)F)c2S1 (stereo not drawn) [Example 2-130],herbicidal activity ABUTH,[10]; 80 g/ha,100%
same,herbicidal activity STEME,[9]; 80 g/ha,100%
same,herbicidal activity VIOTR,[12]; 80 g/ha,100%
same,herbicidal activity ABUTH,[1]; 20 g/ha,90%
same,herbicidal activity VIOTR,[2]; 20 g/ha,90%
CSc1ccc(C(=O)Nc2nnnn2C)c2c1SCS2 [Example 2-253],herbicidal activity ABUTH,[1]; 20 g/ha,90%
Cn1nnnc1NC(=O)c1ccc(Cl)c2c1[S+]([O-])CS2 (stereo not drawn) [Example 2-254],herbicidal activity AMARE,[11]; 80 g/ha,80%
Cn1nnnc1NC(=O)c1ccc(C(F)(F)F)c2c1SC[S+]2[O-] (stereo not drawn) [Example 2-255],herbicidal activity STEME,[7]; 20 g/ha,80%
same,herbicidal activity VIOTR,[2]; 20 g/ha,80%
COC1Sc2c(C(=O)Nc3nnnn3C)ccc(C(F)(F)F)c2S1 (stereo not drawn) [Example 2-257],herbicidal activity ABUTH,[1]; 20 g/ha,90%
same,herbicidal activity ECHCG,[13]; 20 g/ha,100%
same,herbicidal activity VIOTR,[2]; 20 g/ha,80%
CCn1nnnc1NC(=O)c1ccc(C(F)F)c2c1OCS2 [Example 3-53],herbicidal activity AMARE,[11]; 320 g/ha,90%
same,herbicidal activity VIOTR,[12]; 320 g/ha,100%
same,herbicidal activity ABUTH,[1]; 80 g/ha,90%
same,herbicidal activity AMARE,[4]; 80 g/ha,100%
same,herbicidal activity ECHCG,[13]; 80 g/ha,80%
same,herbicidal activity MATIN,[15],80%
same,herbicidal activity SETVI,[14]; 80 g/ha,80%
same,herbicidal activity STEME,[7]; 80 g/ha,90%
same,herbicidal activity VERPE,[8]; 80 g/ha,80%
same,herbicidal activity VIOTR,[2]; 80 g/ha,90%
